Assay results reported in patent publication US12509457B2, “Bicyclic nitrogen containing heterocycles as inhibitors of salt-induced kinase SIK2” (priority 2019, dated 2025).
Read-outs that look alike come from different tables or passages of the source.

How the values were obtained:
Assay type in all cases: biochemical
SIK3 = SIK3 (Homo sapiens, UniProt Q9Y2K2); test: SIK3 kinase assay, IMAP fluorescence polarization; conditions: 50 or 100 μM ATP; average; read-out: SIK3-AVERAGE Ki
Src = Src (Homo sapiens, UniProt P12931); test: Src kinase assay, IMAP fluorescence polarization; conditions: 50 or 100 μM ATP; average; read-out: Src-AVERAGE Ki
SIK2 = SIK2 (Homo sapiens, UniProt Q9H0K1); test: SIK2 kinase assay, IMAP fluorescence polarization; conditions: 50 or 100 μM ATP; average; read-out: SIK2-AVERAGE Ki
SIK1 = SIK1 (Homo sapiens, UniProt P57059); test: SIK1 kinase assay, IMAP fluorescence polarization; conditions: 50 or 100 μM ATP; average; read-out: SIK1-AVERAGE Ki
EPHA2 = EPHA2 (Homo sapiens, UniProt P29317); test: EPHA2 kinase assay, IMAP fluorescence polarization
Abl = Abl (Homo sapiens, UniProt P00519); test: Abl kinase assay, IMAP fluorescence polarization; conditions: 50 or 100 μM ATP; average; read-out: Abl-AVERAGE Ki
Sequence of Abl (P00519 whole entry): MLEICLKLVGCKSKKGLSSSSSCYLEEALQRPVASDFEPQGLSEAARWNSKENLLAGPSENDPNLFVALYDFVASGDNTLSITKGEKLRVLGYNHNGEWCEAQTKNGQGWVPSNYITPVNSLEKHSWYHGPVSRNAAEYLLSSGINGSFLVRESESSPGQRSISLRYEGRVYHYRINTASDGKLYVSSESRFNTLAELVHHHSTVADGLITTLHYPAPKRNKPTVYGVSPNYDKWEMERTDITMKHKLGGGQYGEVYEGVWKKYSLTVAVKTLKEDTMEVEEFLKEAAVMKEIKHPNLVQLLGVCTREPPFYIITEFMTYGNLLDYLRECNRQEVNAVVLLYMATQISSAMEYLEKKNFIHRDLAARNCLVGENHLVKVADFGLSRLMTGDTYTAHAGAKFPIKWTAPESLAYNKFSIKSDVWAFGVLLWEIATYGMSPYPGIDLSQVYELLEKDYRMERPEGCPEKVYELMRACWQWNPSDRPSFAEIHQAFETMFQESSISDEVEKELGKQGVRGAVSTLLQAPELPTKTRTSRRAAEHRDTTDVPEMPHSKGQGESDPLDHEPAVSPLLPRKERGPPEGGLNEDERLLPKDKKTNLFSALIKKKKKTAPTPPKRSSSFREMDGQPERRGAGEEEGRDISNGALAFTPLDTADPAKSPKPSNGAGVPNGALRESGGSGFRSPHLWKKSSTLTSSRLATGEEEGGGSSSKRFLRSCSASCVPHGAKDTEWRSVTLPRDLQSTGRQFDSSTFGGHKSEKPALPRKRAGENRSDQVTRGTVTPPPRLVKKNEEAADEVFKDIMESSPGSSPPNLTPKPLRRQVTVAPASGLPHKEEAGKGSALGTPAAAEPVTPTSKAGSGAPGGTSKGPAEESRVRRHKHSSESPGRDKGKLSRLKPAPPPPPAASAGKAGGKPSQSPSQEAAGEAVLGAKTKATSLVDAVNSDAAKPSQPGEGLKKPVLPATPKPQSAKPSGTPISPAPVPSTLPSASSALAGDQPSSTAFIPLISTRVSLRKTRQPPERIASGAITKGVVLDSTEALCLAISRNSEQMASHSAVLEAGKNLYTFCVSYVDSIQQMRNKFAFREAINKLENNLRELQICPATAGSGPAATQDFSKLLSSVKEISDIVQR

Sequence of EPHA2 (P29317 24-976): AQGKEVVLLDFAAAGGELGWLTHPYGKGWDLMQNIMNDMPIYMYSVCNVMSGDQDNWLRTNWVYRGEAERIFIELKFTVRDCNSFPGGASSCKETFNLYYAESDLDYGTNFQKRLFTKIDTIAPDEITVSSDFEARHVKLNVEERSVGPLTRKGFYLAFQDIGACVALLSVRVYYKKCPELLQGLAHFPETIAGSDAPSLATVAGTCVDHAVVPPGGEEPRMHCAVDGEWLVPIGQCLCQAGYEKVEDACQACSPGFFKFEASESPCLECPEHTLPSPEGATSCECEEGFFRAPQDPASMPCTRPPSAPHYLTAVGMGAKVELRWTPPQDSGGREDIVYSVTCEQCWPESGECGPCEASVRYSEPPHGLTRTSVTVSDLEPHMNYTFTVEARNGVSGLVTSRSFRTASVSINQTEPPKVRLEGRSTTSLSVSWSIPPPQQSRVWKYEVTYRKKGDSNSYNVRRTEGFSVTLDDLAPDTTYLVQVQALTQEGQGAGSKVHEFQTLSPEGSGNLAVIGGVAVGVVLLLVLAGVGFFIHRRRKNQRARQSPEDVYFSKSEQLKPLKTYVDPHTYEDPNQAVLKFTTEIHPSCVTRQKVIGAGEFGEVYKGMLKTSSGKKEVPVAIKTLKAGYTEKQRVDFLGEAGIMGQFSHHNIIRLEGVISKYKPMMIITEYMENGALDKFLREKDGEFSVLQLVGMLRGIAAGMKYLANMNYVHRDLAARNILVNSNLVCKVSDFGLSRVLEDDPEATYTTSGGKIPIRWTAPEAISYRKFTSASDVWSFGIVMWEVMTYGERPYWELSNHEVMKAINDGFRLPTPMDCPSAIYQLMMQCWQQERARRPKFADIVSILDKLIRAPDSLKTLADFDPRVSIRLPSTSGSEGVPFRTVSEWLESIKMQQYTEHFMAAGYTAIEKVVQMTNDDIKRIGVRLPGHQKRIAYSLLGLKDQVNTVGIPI
Sequence of SIK1 (P57059 whole entry): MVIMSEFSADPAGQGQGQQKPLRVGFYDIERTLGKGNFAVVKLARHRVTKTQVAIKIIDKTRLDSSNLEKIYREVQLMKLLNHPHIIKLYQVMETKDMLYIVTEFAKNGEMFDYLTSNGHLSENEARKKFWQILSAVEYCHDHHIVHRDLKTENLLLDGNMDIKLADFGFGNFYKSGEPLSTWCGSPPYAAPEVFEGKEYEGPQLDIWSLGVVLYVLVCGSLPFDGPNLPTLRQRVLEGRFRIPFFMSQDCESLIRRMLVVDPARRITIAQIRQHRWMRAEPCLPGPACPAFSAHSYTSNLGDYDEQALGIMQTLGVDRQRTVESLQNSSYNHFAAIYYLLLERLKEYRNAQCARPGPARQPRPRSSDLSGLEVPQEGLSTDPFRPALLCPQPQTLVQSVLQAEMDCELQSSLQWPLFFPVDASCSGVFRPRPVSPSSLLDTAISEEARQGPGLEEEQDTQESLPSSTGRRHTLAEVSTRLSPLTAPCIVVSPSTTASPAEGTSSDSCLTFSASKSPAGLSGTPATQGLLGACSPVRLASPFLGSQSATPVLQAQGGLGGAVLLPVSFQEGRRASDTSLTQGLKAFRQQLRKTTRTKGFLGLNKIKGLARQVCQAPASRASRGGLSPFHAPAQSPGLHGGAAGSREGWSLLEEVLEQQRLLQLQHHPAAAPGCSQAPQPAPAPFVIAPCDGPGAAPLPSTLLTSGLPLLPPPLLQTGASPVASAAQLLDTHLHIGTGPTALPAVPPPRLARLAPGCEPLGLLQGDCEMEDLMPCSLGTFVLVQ
Sequence of SIK2 (Q9H0K1 whole entry): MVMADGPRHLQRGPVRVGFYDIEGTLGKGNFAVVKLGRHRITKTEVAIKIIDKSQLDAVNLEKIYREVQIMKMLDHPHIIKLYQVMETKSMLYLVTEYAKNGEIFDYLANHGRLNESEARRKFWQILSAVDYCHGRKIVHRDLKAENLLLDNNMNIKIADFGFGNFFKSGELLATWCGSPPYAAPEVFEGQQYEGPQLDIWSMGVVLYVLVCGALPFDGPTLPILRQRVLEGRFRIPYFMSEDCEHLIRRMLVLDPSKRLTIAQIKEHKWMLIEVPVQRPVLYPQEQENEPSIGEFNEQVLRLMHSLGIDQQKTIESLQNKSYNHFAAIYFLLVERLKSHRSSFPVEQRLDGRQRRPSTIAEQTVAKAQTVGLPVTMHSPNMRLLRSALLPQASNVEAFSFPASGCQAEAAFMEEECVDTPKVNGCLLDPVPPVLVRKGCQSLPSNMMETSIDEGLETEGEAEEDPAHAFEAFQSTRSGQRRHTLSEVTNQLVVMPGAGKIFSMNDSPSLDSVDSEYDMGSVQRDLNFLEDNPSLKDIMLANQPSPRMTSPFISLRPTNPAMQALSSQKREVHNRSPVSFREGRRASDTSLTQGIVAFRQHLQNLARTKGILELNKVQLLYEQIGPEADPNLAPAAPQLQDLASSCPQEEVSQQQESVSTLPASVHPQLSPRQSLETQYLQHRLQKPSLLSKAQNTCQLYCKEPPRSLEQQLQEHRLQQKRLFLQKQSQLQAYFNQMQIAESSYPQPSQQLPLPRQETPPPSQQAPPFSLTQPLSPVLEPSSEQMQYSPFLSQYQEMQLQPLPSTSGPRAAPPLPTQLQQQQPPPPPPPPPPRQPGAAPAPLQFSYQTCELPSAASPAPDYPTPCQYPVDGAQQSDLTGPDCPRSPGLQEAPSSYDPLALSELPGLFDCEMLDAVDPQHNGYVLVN
Sequence of Src (P12931 whole entry): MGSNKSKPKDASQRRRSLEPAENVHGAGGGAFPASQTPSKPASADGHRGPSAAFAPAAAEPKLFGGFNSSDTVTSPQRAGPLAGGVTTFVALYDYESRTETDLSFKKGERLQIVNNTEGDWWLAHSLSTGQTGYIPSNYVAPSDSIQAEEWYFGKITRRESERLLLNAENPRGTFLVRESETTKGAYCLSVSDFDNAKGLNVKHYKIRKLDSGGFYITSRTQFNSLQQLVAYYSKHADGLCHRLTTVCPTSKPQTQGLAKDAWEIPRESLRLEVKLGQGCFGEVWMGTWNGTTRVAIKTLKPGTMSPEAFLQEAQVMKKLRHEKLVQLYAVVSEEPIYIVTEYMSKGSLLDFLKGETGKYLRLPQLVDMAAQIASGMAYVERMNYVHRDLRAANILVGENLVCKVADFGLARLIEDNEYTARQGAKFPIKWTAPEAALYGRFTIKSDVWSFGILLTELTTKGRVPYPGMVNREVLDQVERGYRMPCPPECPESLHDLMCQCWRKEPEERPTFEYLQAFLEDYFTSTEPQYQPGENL

Row | Ki (SIK3) [nM] | Ki (Src) [nM] | Ki (SIK2) [nM] | Ki (SIK1) [nM] | Ki (EPHA2; 50 or 100 μM ATP, average) [nM] | Ki (Abl) [nM] | Ki (EPHA2) [nM] | SMILES
1 | 5.04 | 252 | 0.522 | 0.84 | 45.2 | 67.4 | – | Cc1cccc(F)c1N1Cc2cnc(N)cc2N([C@@H]2CCCN(C)C2)C1=O [Example 81, 7-amino-3-(2-fluoro-6-methyl-phenyl)-1-[(3R)-1-methyl-3-piperidyl]-4H-pyrido[4,3-d]pyrimidin-2-one]
2 | 5.89 | 82.7 | 0.498 | 1 | 54.5 | > 1000 | – | Cc1cccc(F)c1N1Cc2cnc(N)cc2N([C@H]2CCCN(C)C2)C1=O [Example 82, 7-amino-3-(2-fluoro-6-methyl-phenyl)-1-[(3S)-1-methyl-3-piperidyl]-4H-pyrido[4,3-d]pyrimidin-2-one]
3 | 1.19 | 163 | 0.232 | 0.384 | 84.4 | 43 | – | Cc1cccc(F)c1N1Cc2cnc(N)cc2N([C@H]2CC[C@@H](N(C)C)CC2)C1=O [Example 46, cis-7-Amino-1-[4-(dimethylamino)cyclohexyl]-3-(2-fluoro-6-methyl-phenyl)-4H-pyrido[4,3-d]pyrimidin-2-one]
4 | 0.944 | 31.2 | 0.147 | 0.743 | 28.1 | 42.4 | – | Cc1cccc(F)c1N1Cc2cnc(N)cc2N([C@H]2CC[C@@H](N)CC2)C1=O [Example 62, cis-7-Amino-1-(4-aminocyclohexyl)-3-(2-fluoro-6-methyl-phenyl)-4H-pyrido[4,3-d]pyrimidin-2-one]
5 | 37.9 | > 10000 | 2.12 | 3.2 | – | 352 | 296 | Cc1cccc(F)c1N1Cc2cnc(N)cc2N([C@@H]2CCN(C)C2)C1=O [Example 80, 7-amino-3-(2-fluoro-6-methyl-phenyl)-1-[(3R)-1-methylpyrrolidin-3-yl]-4H-pyrido[4,3-d]pyrimidin-2-one]
6 | 1.35 | 39.4 | 0.343 | 0.733 | 97.4 | 25.5 | – | CN[C@H]1CC[C@H](N2C(=O)N(c3c(C)cccc3F)Cc3cnc(N)cc32)CC1 [Example 64, trans-7-amino-3-(2-fluoro-6-methyl-phenyl)-1-[4-(methylamino)cyclohexyl]-4H-pyrido[4,3-d]pyrimidin-2-one]

The next lines start with the molecule.

Row | SMILES | Ki (SIK3) [nM] | Ki (Src) [nM] | Ki (SIK2) [nM] | Ki (SIK1) [nM] | Ki (EPHA2; 50 or 100 μM ATP, average) [nM] | Ki (Abl) [nM] | Ki (EPHA2) [nM]
7 | Cc1cccc(Cl)c1N1Cc2cnc(N)cc2N(C2CNC2)C1=O [Example 8, 7-amino-1-(azetidin-3-yl)-3-(2-chloro-6-methyl-phenyl)-4H-pyrido[4,3-d]pyrimidin-2-one] | 45.6 | 158 | 4.49 | 7.76 | – | > 1000 | 149
8 | Cc1cccc(Cl)c1N1Cc2cnc(N)nc2N(C2CNC2)C1=O [Example 14, 7-amino-1-(azetidin-3-yl)-3-(2-chloro-6-methyl-phenyl)-4H-pyrimido[4,5-d]pyrimidin-2-one] | 9.47 | 96.1 | 1.67 | 5.8 | 180 | 42.5 | –
9 | Cc1cccc(F)c1N1Cc2cnc(N)nc2N([C@H]2CC[C@@H](N)CC2)C1=O [Example 74, 7-amino-1-(4-aminocyclohexyl)-3-(2-fluoro-6-methyl-phenyl)-4H-pyrimido[4,5-d]pyrimidin-2-one] | 1.98 | 49 | 0.356 | 1.08 | 16.3 | 22.6 | –
10 | Cc1cccc(F)c1N1Cc2cnc(N)nc2N(C2CCCC(N)C2)C1=O (centres unmarked) [Example 75, 7-amino-1-(3-aminocyclohexyl)-3-(2-fluoro-6-methyl-phenyl)-4H-pyrimido[4,5-d]pyrimidin-2-one] | 3.04 | 11.6 | 0.209 | 0.681 | 9.26 | 13.8 | –
11 | Cc1cccc(F)c1N1Cc2cnc(N)nc2N([C@H]2CCCCNC2)C1=O [Example 70, 7-amino-1-[(3S)-azepan-3-yl]-3-(2-fluoro-6-methyl-phenyl)-4H-pyrimido[4,5-d]pyrimidin-2-one] | 5.92 | 114 | 0.278 | 0.907 | 73.8 | 85.7 | –
12 | Cc1cccc(F)c1N1Cc2cnc(N)nc2N(C2CCC(N)C2)C1=O (centres unmarked) [Example 76, 7-amino-1-(3-aminocyclopentyl)-3-(2-fluoro-6-methyl-phenyl)-4H-pyrimido[4,5-d]pyrimidin-2-one] | 1.18 | 29.2 | 0.205 | 0.612 | 9.16 | 4.22 | –
13 | Cc1cccc(F)c1N1Cc2cnc(N(C)C)cc2N([C@H]2CC[C@@H](N(C)C)CC2)C1=O [Example 41, cis-7-(dimethylamino)-1-[4-(dimethylamino)cyclohexyl]-3-(2-fluoro-6-methyl-phenyl)-4H-pyrido[4,3-d]pyrimidin-2-one] | 565 | > 10000 | 102 | 478 | > 10000 | > 10000 | –
14 | Cc1cccc(F)c1N1Cc2cnc(N)cc2N([C@@H]2CCCNC2)C1=O [Example 48, 7-amino-3-(2-fluoro-6-methyl-phenyl)-1-[(3R)-3-piperidyl]-4H-pyrido[4,3-d]pyrimidin-2-one] | 4 | 132 | 0.348 | 1.26 | – | > 1000 | 68.5
15 | Cc1cccc(F)c1N1Cc2cnc(N)nc2N(C2CNC2)C1=O [Example 13, 7-Amino-1-(azetidin-3-yl)-3-(2-fluoro-6-methyl-phenyl)-4H-pyrimido[4,5-d]pyrimidin-2-one] | 10.9 | 400 | 1.77 | 9.71 | 371 | 36.4 | –
16 | Cc1cccc(F)c1N1Cc2cnc(N)nc2N([C@H]2CCNC2)C1=O [Example 65, 7-Amino-3-(2-fluoro-6-methyl-phenyl)-1-[(3S)-pyrrolidin-3-yl]-4H-pyrimido[4,5-d]pyrimidin-2-one] | 20.8 | > 1000 | 1.11 | 2.8 | 149 | > 1000 | –
17 | Cc1cccc(F)c1N1Cc2cnc(N)nc2N([C@@H]2CCCCN(C)C2)C1=O [Example 38, 7-amino-3-(2-fluoro-6-methyl-phenyl)-1-[(3R)-1-methylazepan-3-yl]-4H-pyrimido[4,5-d]pyrimidin-2-one] | 46.7 | 678 | 2.7 | 9.57 | 188 | 144 | –
18 | Cc1cccc(F)c1N1Cc2cnc(N)cc2N([C@H]2CCCCNC2)C1=O [Example 53, 7-amino-1-[(3S)-azepan-3-yl]-3-(2-fluoro-6-methyl-phenyl)-4H-pyrido[4,3-d]pyrimidin-2-one] | 68 | 2870 | 2.24 | 9.45 | 815 | 517 | –
19 | Cc1cccc(F)c1N1Cc2cnc(N(C)C)cc2N([C@H]2CCC[C@@H](N(C)C)C2)C1=O (relative stereo) [Example 44, 7-(dimethylamino)-1-[cis-3-(dimethylamino)cyclohexyl]-3-(2-fluoro-6-methyl-phenyl)-4H-pyrido[4,3-d]pyrimidin-2-one] | 1370 | > 10000 | 123 | 263 | 6410 | – | –
